row,melting point [°C],SMILES
1,134,CCNc1ccc(C(=O)Nc2ccc3ccc(OC)nc3n2)cc1
2,185 to 187,CCC1(Cl)Cc2cc(OCC(=O)O)c(Cl)c(Cl)c2C1=O (stereo unspecified)
3,80 to 81.5,CC(=O)N(CCCc1ccccc1)[C@H]1CC[C@H](c2ccc(OCc3ccccc3)cc2)CC1
4,69 to 70,CCOC(=O)CCc1cc(CCC(N)=O)cc(Cc2ccc(F)cc2)c1
5,148 to 149,CSc1ccccc1C(=O)Nc1ccccc1
6,116 to 119,CN(C)C(=O)C(C)(C)n1cc(C#N)c(-c2ccccc2)n1
7,70 to 80,O=C(c1ccc(F)cc1)N1CCN(CC(O)Cn2c3ccccc3c3ccccc32)CC1 (stereo unspecified)
8,144 to 145,CC(=O)Oc1ccccc1C1SC[C@@H](C(=O)O)N1C(=O)CCSC(C)=O (stereo partly specified)
9,194 to 195,COc1cc(OC)cc(-c2nc(CCOc3ccc(C[C@H](OC)C(=O)O)c4sccc34)c(C)o2)c1
10,136 to 137,NS(=O)(=O)CCCSc1ccc2ncc(Cl)n2n1
11,192 to 193,COc1ccc(-c2nnc3c4ccccc4c(Cl)nn23)cc1
12,128 to 129,O=C(O)CCc1nn(-c2ccc(F)cc2)c2c1CCCC2
13,86,Cc1ccc(-c2cc(F)cc3c2NC(CN)CO3)c(C(F)(F)F)c1 (stereo unspecified)
14,77.7 to 79.4,COCCCCCCCCCCCC(=O)NCc1ccccc1
15,210,O=[N+]([O-])c1ccc(-n2cccn2)cc1
16,89 to 93,CC(Cc1c[nH]c2ccccc12)(NC(=O)OCC1c2ccccc2-c2ccccc21)C(=O)NC(CO)Cc1ccccc1 (stereo unspecified)
17,261 to 265,CS(=O)(=O)Nc1ccc(Nc2nc(NC3CCCC3)c3nc[nH]c3n2)cc1
18,178 to 180,CS(=O)(=O)N1CCN(C(=N)Nc2ccccc2-c2ccccc2)CC1
19,163 to 165,N#Cc1cccc(C2C(=O)N(Cc3ccccc3)Cc3cncn32)c1 (stereo unspecified)
20,191 to 192,CC1CC(=O)NN=C1c1ccc(-n2ccc(C=O)c2)cc1 (stereo unspecified)

row,melting point [°C],SMILES
1,121 to 124,COC(=O)c1cc2nc(C)oc2cc1C(=O)OC
2,189 to 192,CC12CCC3c4cccc(N)c4CCC3C1CCC2O (stereo unspecified)
3,148,OCc1ncc(O)c2c1[nH]c1ccccc12
4,112 to 113,C=C1C(=O)OC2C1CCC(C)=CCCC1(C)OC21 (stereo unspecified)
5,189 to 190,CC(/C=C/C(Br)=C(/C)c1ccc2c(c1)C(C)(C)CCC2(C)C)=C\C(=O)O
6,145 to 146,CC(=O)Nc1nc(CCc2ccc(CCl)cc2)cs1
7,63 to 64,CCOC(=O)c1ccccc1CS(=O)(=O)Cl
8,> 220,CC(=O)C1Oc2cc3c(cc2O1)=NC(F)(F)N=3
9,58 to 62,COc1cc(OC)c2c(c1OC)CCC(C(=O)Cc1cccc(F)c1)C2C#N (stereo unspecified)
10,78 to 79,Nc1ccc(OCCCCCOc2ccc(N)cc2)cc1
11,85.3 to 85.6,N#CCc1cccc2c(C3CCCCC3)nccc12
12,99 to 103,O=C(Cc1ccccc1Cl)Nc1ccc(C(=O)N2Cc3cccn3Cc3ccccc32)cc1
13,123 to 124,COc1nc(OC)c(C(C)C)c(C(C#N)c2cc(C)cc(Br)c2)n1 (stereo unspecified)
14,134 to 137,O=[N+]([O-])c1cc([N+](=O)[O-])c(N(SC(Cl)(Cl)Cl)c2cc(C(F)(F)F)ccc2Cl)c(C(F)(F)F)c1
15,180 to 183,COc1c(C)c2c(c(OC(C)=O)c1C/C=C/c1c(C)cccc1C(=O)O)C(=O)OC2
16,214 to 216,O=C(O)c1ccc(N(CC2CC2)c2cc3c4c(c2)CCCC4CCC3)cc1
17,240 to 244,CCNC(=O)Nc1ccc(-c2sc3c(c2CN(C)CCC(=O)NCCOC)c(=O)n(-c2ccccc2)c(=O)n3Cc2c(F)cccc2F)cc1
18,212 to 214,CCCNC(=O)CCn1cnc2c(N)nc3ccccc3c21
19,73 to 75,Cc1ccc(C)n1-c1ccccc1OCC(O)CNC(C)C (stereo unspecified)
20,256,Nc1nc(Nc2cccnc2)nn1-c1ccccn1

row,SMILES,melting point [°C]
1,CS(=O)(=O)c1ccc(CCl)cc1,102
